Starred links: 1 amine or outer side, 2 acyl side, 3 side chain; linkers in the order of their positions; H or OH if unused. Positions of bridges follow the written chain, without caps; N, C: chain ends. Non-standard residues stand in square brackets, D forms with d. Residues, ends and D or L forms follow the SMILES beside them. ξ: configuration not given here. mXylylene = c1cc(C[*:1])cc(C[*:2])c1; ξhCys = NC(CCS)C(=O)O
Assays:
[1] = Inhibition of HIV1 gp41-induced cell-cell fusion between viral envelope expressing human HL2/3 cells to CD4/CCR5 receptor expressing TZM-bl cells after 6 hrs by luciferase assay
[2] = Inhibition of HIV1 gp41-induced cell-cell fusion between viral envelope expressing human HL2/3 cells to CD4/CCR5 receptor expressing TZM-bl cells at 4:1 compound to HP23 ratio incubated for 6 hrs by luciferase reporter gene assay
[3] = target: Envelope glycoprotein gp160 (Human immunodeficiency virus 1, UniProt Q6QLK5); assay: Inhibition of HIV1 gp41-induced cell-cell fusion between viral envelope expressing human HL2/3 cells to CD4/CCR5 receptor expressing TZM-bl cells after 6 hrs by luciferase assay
Envelope glycoprotein gp160, sequence (Q6QLK5 whole entry, the tested form may be a part): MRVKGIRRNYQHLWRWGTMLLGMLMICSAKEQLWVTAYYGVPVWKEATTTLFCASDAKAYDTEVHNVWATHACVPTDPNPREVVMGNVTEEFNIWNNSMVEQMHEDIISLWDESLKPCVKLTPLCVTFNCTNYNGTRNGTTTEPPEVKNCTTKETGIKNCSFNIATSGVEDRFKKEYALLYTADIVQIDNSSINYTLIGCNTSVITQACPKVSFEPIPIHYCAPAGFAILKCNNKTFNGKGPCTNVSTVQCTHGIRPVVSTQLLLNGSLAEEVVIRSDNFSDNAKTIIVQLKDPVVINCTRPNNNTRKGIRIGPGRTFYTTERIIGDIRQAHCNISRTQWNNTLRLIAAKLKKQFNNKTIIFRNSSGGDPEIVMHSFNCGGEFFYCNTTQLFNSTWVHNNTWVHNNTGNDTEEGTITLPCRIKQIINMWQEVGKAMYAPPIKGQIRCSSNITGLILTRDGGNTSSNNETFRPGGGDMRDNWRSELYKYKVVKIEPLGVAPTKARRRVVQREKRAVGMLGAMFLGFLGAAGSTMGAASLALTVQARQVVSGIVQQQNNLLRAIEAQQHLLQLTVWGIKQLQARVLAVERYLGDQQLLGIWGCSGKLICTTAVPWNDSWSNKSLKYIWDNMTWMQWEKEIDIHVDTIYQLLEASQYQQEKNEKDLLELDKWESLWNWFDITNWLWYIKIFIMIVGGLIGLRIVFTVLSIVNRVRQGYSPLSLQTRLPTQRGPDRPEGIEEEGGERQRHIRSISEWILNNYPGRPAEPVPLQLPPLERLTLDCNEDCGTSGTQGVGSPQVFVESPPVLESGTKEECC

[4] = Inhibition of HIV1 gp41-induced cell-cell fusion between viral envelope expressing human HL2/3 cells to CD4/CCR5 receptor expressing TZM-bl cells at 1:1 ratio of hCS6ERE to compound incubated for 6 hrs by luciferase reporter gene assay
[5] = Inhibition of HIV1 gp41-induced cell-cell fusion between viral envelope expressing human HL2/3 cells to CD4/CCR5 receptor expressing TZM-bl cells at 2:1 ratio of hCS6ERE to compound incubated for 6 hrs by luciferase reporter gene assay
[6] = Inhibition of HIV1 gp41-induced cell-cell fusion between viral envelope expressing human HL2/3 cells to CD4/CCR5 receptor expressing TZM-bl cells at 4:1 ratio of hCS6ERE to compound incubated for 6 hrs by luciferase reporter gene assay

Compound | EC50 [1] [nM] | other results
CC[C@H](C)[C@H](NC(C)=O)C(=O)N[C@H]1CSCc2cccc(c2)CSC[C@@H](C(=O)N[C@@H](C)C(=O)N[C@@H](C)C(=O)N[C@@H](CCC(N)=O)C(=O)N[C@@H](CCC(=O)O)C(=O)N[C@@H](CCC(N)=O)C(=O)N[C@@H](CCC(N)=O)C(=O)N[C@@H](CCC(=O)O)C(=O)N[C@@H](CCCCN)C(=O)N[C@@H](CC(N)=O)C(=O)N[C@@H](CCC(=O)O)C(=O)N[C@@H](C)C(=O)N[C@@H](C)C(=O)N[C@@H](CC(C)C)C(=O)N[C@@H](CCCNC(=N)N)C(=O)N[C@@H](CCC(=O)O)C(=O)N[C@@H](CC(C)C)C(N)=O)NC(=O)[C@H]([C@@H](C)CC)NC(=O)[C@H](CC(C)C)NC(=O)[C@H](C)NC1=O (Ac-ICALICAAQEQQEKNEAALREL-NH2; linker 2-6 via mXylylene) | 147 | –
CC[C@H](C)[C@H](NC(C)=O)C(=O)N[C@@H](CCC(=O)O)C(=O)N[C@@H](C)C(=O)N[C@@H](CC(C)C)C(=O)N[C@H](C(=O)N[C@H]1CSCc2cccc(c2)CSC[C@@H](C(=O)N[C@@H](CCC(N)=O)C(=O)N[C@@H](CCC(N)=O)C(=O)N[C@@H](CCC(=O)O)C(=O)N[C@@H](CCCCN)C(=O)N[C@@H](CC(N)=O)C(=O)N[C@@H](CCC(=O)O)C(=O)N[C@@H](C)C(=O)N[C@@H](C)C(=O)N[C@@H](CC(C)C)C(=O)N[C@@H](CCCNC(=N)N)C(=O)N[C@@H](CCC(=O)O)C(=O)N[C@@H](CC(C)C)C(N)=O)NC(=O)[C@H](CCC(N)=O)NC(=O)[C@H](C)NC(=O)[C@H](C)NC1=O)[C@@H](C)CC (Ac-IEALICAAQCQQEKNEAALREL-NH2; linker 6-10 via mXylylene) | 96 | –
CC[C@H](C)[C@H](NC(C)=O)C(=O)N[C@@H](CCC(=O)O)C(=O)N[C@@H](C)C(=O)N[C@@H](CC(C)C)C(=O)N[C@H](C(=O)N[C@@H](CCCNC(=N)N)C(=O)N[C@@H](C)C(=O)N[C@@H](C)C(=O)N[C@H]1CSCc2cccc(c2)CSC[C@@H](C(=O)N[C@@H](CCCCN)C(=O)N[C@@H](CC(N)=O)C(=O)N[C@@H](CCC(=O)O)C(=O)N[C@@H](C)C(=O)N[C@@H](C)C(=O)N[C@@H](CC(C)C)C(=O)N[C@@H](CCCNC(=N)N)C(=O)N[C@@H](CCC(=O)O)C(=O)N[C@@H](CC(C)C)C(N)=O)NC(=O)[C@H](CCC(N)=O)NC(=O)[C@H](CCC(N)=O)NC(=O)[C@H](CCC(=O)O)NC1=O)[C@@H](C)CC (Ac-IEALIRAACEQQCKNEAALREL-NH2; linker 9-13 via mXylylene) | 214 | –
CC[C@H](C)[C@H](NC(C)=O)C(=O)N[C@@H](CCC(=O)O)C(=O)N[C@@H](C)C(=O)N[C@@H](CC(C)C)C(=O)N[C@H](C(=O)N[C@@H](CCCNC(=N)N)C(=O)N[C@@H](C)C(=O)N[C@@H](C)C(=O)N[C@@H](CCC(N)=O)C(=O)N[C@H]1CSCc2cccc(c2)CSC[C@@H](C(=O)N[C@@H](CC(N)=O)C(=O)N[C@@H](CCC(=O)O)C(=O)N[C@@H](C)C(=O)N[C@@H](C)C(=O)N[C@@H](CC(C)C)C(=O)N[C@@H](CCCNC(=N)N)C(=O)N[C@@H](CCC(=O)O)C(=O)N[C@@H](CC(C)C)C(N)=O)NC(=O)[C@H](CCC(=O)O)NC(=O)[C@H](CCC(N)=O)NC(=O)[C@H](CCC(N)=O)NC1=O)[C@@H](C)CC (Ac-IEALIRAAQCQQECNEAALREL-NH2; linker 10-14 via mXylylene) | 171 | –
CC[C@H](C)[C@H](NC(C)=O)C(=O)N[C@@H](CCC(=O)O)C(=O)N[C@@H](C)C(=O)N[C@@H](CC(C)C)C(=O)N[C@H](C(=O)N[C@@H](CCCNC(=N)N)C(=O)N[C@@H](C)C(=O)N[C@@H](C)C(=O)N[C@@H](CCC(N)=O)C(=O)N[C@@H](CCC(=O)O)C(=O)N[C@@H](CCC(N)=O)C(=O)N[C@@H](CCC(N)=O)C(=O)N[C@H]1CSCc2cccc(c2)CSC[C@@H](C(=O)N[C@@H](C)C(=O)N[C@@H](CC(C)C)C(=O)N[C@@H](CCCNC(=N)N)C(=O)N[C@@H](CCC(=O)O)C(=O)N[C@@H](CC(C)C)C(N)=O)NC(=O)[C@H](CCC(=O)O)NC(=O)[C@H](CC(N)=O)NC(=O)[C@H](CCCCN)NC1=O)[C@@H](C)CC (Ac-IEALIRAAQEQQCKNECALREL-NH2; linker 13-17 via mXylylene) | 132 | –
CC[C@H](C)[C@H](NC(C)=O)C(=O)N[C@@H](CCC(=O)O)C(=O)N[C@@H](C)C(=O)N[C@@H](CC(C)C)C(=O)N[C@H](C(=O)N[C@@H](CCCNC(=N)N)C(=O)N[C@@H](C)C(=O)N[C@@H](C)C(=O)N[C@@H](CCC(N)=O)C(=O)N[C@@H](CCC(=O)O)C(=O)N[C@@H](CCC(N)=O)C(=O)N[C@@H](CCC(N)=O)C(=O)N[C@@H](CCC(=O)O)C(=O)N[C@@H](CCCCN)C(=O)N[C@@H](CC(N)=O)C(=O)N[C@H]1CSCc2cccc(c2)CSC[C@@H](C(=O)N[C@@H](CCC(=O)O)C(=O)N[C@@H](CC(C)C)C(N)=O)NC(=O)[C@H](CC(C)C)NC(=O)[C@H](C)NC(=O)[C@H](C)NC1=O)[C@@H](C)CC (Ac-IEALIRAAQEQQEKNCAALCEL-NH2; linker 16-20 via mXylylene) | 166 | –
CC[C@H](C)[C@H](NC(C)=O)C(=O)N[C@@H](CCC(=O)O)C(=O)N[C@@H](C)C(=O)N[C@@H](CC(C)C)C(=O)N[C@H](C(=O)N[C@@H](CCCNC(=N)N)C(=O)N[C@@H](C)C(=O)N[C@@H](C)C(=O)N[C@@H](CCC(N)=O)C(=O)N[C@@H](CCC(=O)O)C(=O)N[C@@H](CCC(N)=O)C(=O)N[C@@H](CCC(N)=O)C(=O)N[C@@H](CCC(=O)O)C(=O)N[C@@H](CCCCN)C(=O)N[C@@H](CC(N)=O)C(=O)N[C@@H](CCC(=O)O)C(=O)N[C@H]1CSCc2cccc(c2)CSC[C@@H](C(=O)N[C@@H](CC(C)C)C(N)=O)NC(=O)[C@H](CCCNC(=N)N)NC(=O)[C@H](CC(C)C)NC(=O)[C@H](C)NC1=O)[C@@H](C)CC (Ac-IEALIRAAQEQQEKNECALRCL-NH2; linker 17-21 via mXylylene) | 123 | –
CC[C@H](C)[C@H](NC(C)=O)C(=O)N[C@@H](CCC(=O)O)C(=O)N[C@@H](C)C(=O)N[C@@H](CC(C)C)C(=O)N[C@H](C(=O)NC1CCSCc2cccc(c2)CSCCC(C(=O)N[C@@H](CCC(N)=O)C(=O)N[C@@H](CCC(N)=O)C(=O)N[C@@H](CCC(=O)O)C(=O)N[C@@H](CCCCN)C(=O)N[C@@H](CC(N)=O)C(=O)N[C@@H](CCC(=O)O)C(=O)N[C@@H](C)C(=O)N[C@@H](C)C(=O)N[C@@H](CC(C)C)C(=O)N[C@@H](CCCNC(=N)N)C(=O)N[C@@H](CCC(=O)O)C(=O)N[C@@H](CC(C)C)C(N)=O)NC(=O)[C@H](CCC(N)=O)NC(=O)[C@H](C)NC(=O)[C@H](C)NC1=O)[C@@H](C)CC (some centres not stated) (Ac-IEALI[ξhCys]AAQ[ξhCys]QQEKNEAALREL-NH2; linker 6-10 via mXylylene) | 34 | –
CC[C@H](C)[C@H](NC(C)=O)C(=O)N[C@@H](CCC(=O)O)C(=O)N[C@@H](C)C(=O)N[C@@H](CC(C)C)C(=O)N[C@H](C(=O)NC1CCSCc2cccc(c2)CSCCC(C(=O)N[C@@H](CCC(N)=O)C(=O)N[C@@H](CCC(N)=O)C(=O)N[C@@H](CCCNC(=N)N)C(=O)N[C@@H](CCCCN)C(=O)N[C@@H](CC(N)=O)C(=O)N[C@@H](CCC(=O)O)C(=O)N[C@@H](CCC(=O)O)C(=O)N[C@@H](C)C(=O)N[C@@H](CC(C)C)C(=O)N[C@@H](CCCNC(=N)N)C(=O)N[C@@H](CCC(=O)O)C(=O)N[C@@H](CC(C)C)C(N)=O)NC(=O)[C@H](CCC(N)=O)NC(=O)[C@H](C)NC(=O)[C@H](C)NC1=O)[C@@H](C)CC (some centres not stated) (Ac-IEALI[ξhCys]AAQ[ξhCys]QQRKNEEALREL-NH2; linker 6-10 via mXylylene) | 22 | –
CC[C@H](C)[C@H](NC(C)=O)C(=O)N[C@@H](CCC(=O)O)C(=O)N[C@H]1CSCc2cccc(c2)CSC[C@@H](C(=O)N[C@@H](C)C(=O)N[C@@H](CCC(N)=O)C(=O)N[C@@H](CCC(=O)O)C(=O)N[C@@H](CCC(N)=O)C(=O)N[C@@H](CCC(N)=O)C(=O)N[C@@H](CCC(=O)O)C(=O)N[C@@H](CCCCN)C(=O)N[C@@H](CC(N)=O)C(=O)N[C@@H](CCC(=O)O)C(=O)N[C@@H](C)C(=O)N[C@@H](C)C(=O)N[C@@H](CC(C)C)C(=O)N[C@@H](CCCNC(=N)N)C(=O)N[C@@H](CCC(=O)O)C(=O)N[C@@H](CC(C)C)C(N)=O)NC(=O)[C@H](CCCNC(=N)N)NC(=O)[C@H]([C@@H](C)CC)NC(=O)[C@H](CC(C)C)NC1=O (Ac-IECLIRCAQEQQEKNEAALREL-NH2; linker 3-7 via mXylylene) | 136 | –
CC[C@H](C)[C@H](NC(C)=O)C(=O)N[C@@H](CCC(=O)O)C(=O)N[C@@H](CCC(=O)O)C(=O)N[C@@H](CC(C)C)C(=O)N[C@H](C(=O)NC1CCSCc2cccc(c2)CSCCC(C(=O)N[C@@H](CCC(N)=O)C(=O)N[C@@H](CCC(N)=O)C(=O)N[C@@H](CCCNC(=N)N)C(=O)N[C@@H](CCCCN)C(=O)N[C@@H](CC(N)=O)C(=O)N[C@@H](CCC(=O)O)C(=O)N[C@@H](CCC(=O)O)C(=O)N[C@@H](C)C(=O)N[C@@H](CC(C)C)C(=O)N[C@@H](CCCNC(=N)N)C(=O)N[C@@H](CCC(=O)O)C(=O)N[C@@H](CC(C)C)C(N)=O)NC(=O)[C@H](CCC(N)=O)NC(=O)[C@H](C)NC(=O)[C@H](C)NC1=O)[C@@H](C)CC (some centres not stated) (Ac-IEELI[ξhCys]AAQ[ξhCys]QQRKNEEALREL-NH2; linker 6-10 via mXylylene) | – | EC50 [2]: 7.1 nM; EC50 [3]: 7.2 nM
Ac-IEALIRAAQEQQEKNEAALREL-NH2 | 127 | –
H-EMTWEEWEKKIEEYTKKIEEILK-OH | 11 | EC50 [4]: 11 nM; EC50 [5]: 5.3 nM; EC50 [6]: 1.7 nM

— BindingDB's records for doi:10.1021/acs.jmedchem.9b00882 (Shenyang Pharmaceutical University, 2019)
